Laboratory results: BigSolDB 2.1

COc1cc(/C=C/C(=O)CC(=O)/C=C/c2ccc(O)c(OC)c2)ccc1O
solubility (mole fraction)
Details | 278.15 K | 283.15 K | 288.15 K | 293.15 K | 298.15 K | 303.15 K | 308.15 K | 313.15 K | 318.15 K
in ethanol | 0.000407 | 0.000497 | 0.000573 | 0.000662 | 0.000769 | 0.000888 | 0.00101 | 0.00113 | 0.00128
in isopropanol | 0.00146 | 0.0017 | 0.00194 | 0.00219 | 0.00252 | 0.00284 | 0.00317 | 0.00357 | 0.004
in n-propanol | 0.0023 | 0.0026 | 0.00291 | 0.00325 | 0.0036 | 0.00401 | 0.00437 | 0.00484 | 0.00526
in propylene glycol | 0.000715 | 0.000827 | 0.000967 | 0.0011 | 0.00126 | 0.00143 | 0.00161 | 0.00182 | 0.00206
in water | 8.34e-09 | 1.16e-08 | 1.59e-08 | 2.15e-08 | 2.94e-08 | 4.03e-08 | 5.38e-08 | 7.06e-08 | 9.32e-08
